Test results taken from patent US9944607B2, “Thiohydantoin derivatives and uses thereof” (Whitehead Institute for Biomedical Research, priority 2012, dated 2018).

Assays:
Candida albicans CaCi-2 = assay: Primary assay: C. albicans CaCi-2 growth inhibition (Alamar Blue); assay type: cell-based
[1] = Plasma stability, human plasma; assay type: in vitro ADME; settings: 37° C., 5 μM
Protocol: (§1) Plasma stability was determined at 37° C. at 5 hours in both human and mouse plasma. Each compound was prepared in duplicate at 5 μM in plasma diluted 50/50 (v/v) with PBS pH 7.4 (0.95% acetonitrile, 0.05% DMSO). Compounds were incubated at 37° C. for 5 hours with a 250-rpm orbital shake with time points taken at 0 hours and 5 hours.

[2] = test system: NIH-3T3 mammalian fibroblasts; assay: Counterscreen mammalian cell toxicity assay (Alamar Blue); assay type: cell-based, murine; settings: Mus musculus, NIH3T3, Tables 9, 10, 12; AID 602394; read-out: Murine 3T3 fibroblasts growth inhibition (fibroblast toxicity) IC50
Procedure, shortened: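 Quiescent NIH-3T3 fibroblasts, cultured overnight, exposed to 100 nL pinned compound for 48 h at 37° C, 5% CO2. Alamar Blue added to 1:200 final, 2-3 h further incubation; fluorescence (RFU) read as relative cell growth.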

[3] = Plasma stability, mouse plasma; assay type: in vitro ADME; settings: 37° C., 5 μM
Protocol: as §1

Candida albicans CaCi-17 = assay: Primary assay: C. albicans CaCi-17 growth inhibition (Alamar Blue); assay type: cell-based; settings: Candida albicans, CACI17, Tables 9, 10, 12; AID 623897; read-out: C. albicans CaCi-17 growth inhibition IC50
[4] = Plasma protein binding by equilibrium dialysis, mouse plasma; assay type: in vitro ADME; settings: pH 7.4, murine plasma, 37° C., read-out: Plasma protein binding (% bound), Murine
Protocol: (§2) Plasma protein binding was determined by equilibrium dialysis using the Rapid Equilibrium Dialysis (RED) device (Pierce Biotechnology, Rockford, Ill.) for both human and mouse plasma. Each compound was prepared in duplicate at 5 μM in plasma (0.95% acetonitrile, 0.05% DMSO) and added to one side of the membrane (200 μL) with PBS pH 7.4 added to the other side (350 μL). Compounds were incubated at 37° C. for 5 hours with a 250-rpm orbital shake.

[5] = Plasma protein binding by equilibrium dialysis, human plasma; assay type: in vitro ADME; settings: pH 7.4, 37° C., read-out: Plasma protein binding (% bound), Human (converted)
Protocol: as §2

mitochondrial function = settings: FIG. 1 legend, known inhibitors; cited from earlier work

Row | fraction unbound at 5 h, 5 μM [4] | fraction unbound at 5 h, 5 μM [5] | Molecule | IC50 (Candida albicans CaCi-2; Candida albicans, CACI2, Tables 9, 10, 12, AID 623899, read-out: C. albicans CaCi-2 growth inhibition IC50) [µM] | Plasma stability (% remaining after 5 hours), Human [1] [%] | IC50 [2] [µM] | Plasma stability (% remaining after 5 hours), Murine [3] [%] | IC50 (Candida albicans CaCi-17) [µM] | Activity against C. albicans (Candida albicans CaCi-2; CaCi-2, or both test strains (CaCi-2, CaCi-17) where the sentence names none) | Inhibition of mitochondrial function (in words) (mitochondrial function)
1 |  |  | CCOC(=O)N1C(=O)C2(CCCCC2)N(c2ccc(C)cc2)C1=S [CID 3889161] | 0.3 | <1.0 | > 26 | <1.0 | 8.5 |  | 
2 | 0.001 | 0.014 | Cc1ccc(N2C(=S)N(C)C(=O)C23CCCCC3)cc1 [CID 56604835] |  | 95.7 |  | 96.6 |  | no activity | 
3 |  |  | Antimycin |  |  |  |  |  |  | potent, but non-selective
